ChEMBL document CHEMBL1909046, “DrugMatrix in vitro pharmacology data”
Where a SMILES comes first, the peptide text is derived from it. Bridges are numbered along the chain shown (N, C = ends). [ ]: non-standard residue; d: D form. The star is where a group is joined. Ileψ(thiazoline)Cys = CC[C@H](C)[C@H](N)C1=N[C@H](C(=O)*)CS1; dOrn = NCCC[C@@H](N)C(=O)O

Key:
[1] = target: Prostaglandin G/H synthase 1 (Homo sapiens, UniProt P23219); assay: biochemical; type: tissue-based, Platelet; details: platelet;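 also: inhibition of COX-1 enzyme activity, with arachidonic acid supplied as substrate; in other assays of this panel Not Active means under 50% inhibition at 10 µM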
[2] = target: Voltage-gated inwardly rectifying potassium channel KCNH2 (Homo sapiens, UniProt Q12809); details: hek293; also: in other assays of this panel Not Active means under 50% inhibition at 10 µM
[3] = target: Mu-type opioid receptor (Homo sapiens, UniProt P35372); assay: DRUGMATRIX: Opiate mu (OP3, MOP) radioligand binding (ligand: [3H] Diprenorphine); type: cell membranes, CHO-K1, Membrane; details: cho-k1; Not Active = under 50% inhibition at 10 µM
[4] = target: Beta-3 adrenergic receptor (Homo sapiens, UniProt P13945); assay: DRUGMATRIX: Adrenergic beta3 radioligand binding (ligand: [125I] Cyanopindolol); type: cell membranes, HEK293, Membrane; details: hek293; Not Active = under 50% inhibition at 10 µM
[5] = DRUGMATRIX: Glutamate, Kainate radioligand binding (ligand: [3H] Kainic acid); type: cell membranes, Rattus norvegicus, Wistar, Brain, Membrane; details: Not Active = under 50% inhibition at 10 µM
[6] = target: T1, Angiotensin-converting enzyme (Oryctolagus cuniculus, UniProt P12822); assay: biochemical; type: tissue-based, Lung;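 also: enzymatic inhibition of angiotensin-converting enzyme measured with FAPGG as the substrate; in other assays of this panel Not Active means under 50% inhibition at 10 µM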
T1 sequence (P12822 whole entry): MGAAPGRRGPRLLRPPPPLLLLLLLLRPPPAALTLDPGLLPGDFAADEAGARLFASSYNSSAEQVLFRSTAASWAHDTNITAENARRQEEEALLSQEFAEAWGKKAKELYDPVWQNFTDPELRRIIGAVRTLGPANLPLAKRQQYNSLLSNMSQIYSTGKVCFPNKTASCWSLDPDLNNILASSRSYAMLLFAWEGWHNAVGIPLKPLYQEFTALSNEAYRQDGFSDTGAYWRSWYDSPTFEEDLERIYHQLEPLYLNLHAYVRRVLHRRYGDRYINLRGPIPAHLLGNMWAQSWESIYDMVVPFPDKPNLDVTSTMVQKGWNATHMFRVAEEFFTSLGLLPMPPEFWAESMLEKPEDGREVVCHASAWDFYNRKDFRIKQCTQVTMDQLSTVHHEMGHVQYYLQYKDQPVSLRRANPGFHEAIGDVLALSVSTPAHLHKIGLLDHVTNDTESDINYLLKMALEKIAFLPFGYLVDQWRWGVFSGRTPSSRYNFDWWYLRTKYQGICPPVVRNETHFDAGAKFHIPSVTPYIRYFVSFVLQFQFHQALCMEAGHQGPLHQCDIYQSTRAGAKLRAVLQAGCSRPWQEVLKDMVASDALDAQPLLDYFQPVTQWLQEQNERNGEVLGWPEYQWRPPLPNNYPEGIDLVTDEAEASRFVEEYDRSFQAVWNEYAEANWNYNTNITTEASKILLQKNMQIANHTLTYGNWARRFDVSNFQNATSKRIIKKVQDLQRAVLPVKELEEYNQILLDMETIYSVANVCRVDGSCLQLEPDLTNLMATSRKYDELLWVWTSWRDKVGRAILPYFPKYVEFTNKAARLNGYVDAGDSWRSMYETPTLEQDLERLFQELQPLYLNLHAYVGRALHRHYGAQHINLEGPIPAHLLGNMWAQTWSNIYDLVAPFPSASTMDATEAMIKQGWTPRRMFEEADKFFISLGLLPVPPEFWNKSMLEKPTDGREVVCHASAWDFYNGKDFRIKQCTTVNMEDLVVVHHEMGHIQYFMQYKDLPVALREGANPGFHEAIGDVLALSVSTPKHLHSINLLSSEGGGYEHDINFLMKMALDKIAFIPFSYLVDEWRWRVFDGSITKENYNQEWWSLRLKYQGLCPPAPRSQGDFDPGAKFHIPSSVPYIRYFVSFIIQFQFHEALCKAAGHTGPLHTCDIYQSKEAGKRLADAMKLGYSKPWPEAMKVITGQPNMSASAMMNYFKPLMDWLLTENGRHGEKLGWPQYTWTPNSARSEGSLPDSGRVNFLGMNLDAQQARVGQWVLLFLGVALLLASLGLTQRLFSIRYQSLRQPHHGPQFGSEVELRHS

[7] = target: Cytochrome P450 2C19 (Homo sapiens, UniProt P33261); details: bti-tn-5b1-4; also: in other assays of this panel Not Active means under 50% inhibition at 10 µM
[8] = DRUGMATRIX: Serotonin (5-Hydroxytryptamine) 5-HT3 radioligand binding (ligand: [3H] GR-65630); type: cell membranes, Membrane; details: hek293, Not Active = under 50% inhibition at 10 µM
[9] = DRUGMATRIX: Potassium Channel [KATP] radioligand binding (ligand: [3H] Glyburide); type: cell membranes, Membrane; details: hit-t15; Not Active = under 50% inhibition at 10 µM
[10] = target: T2, Alpha-2C adrenergic receptor (Homo sapiens, UniProt P18825); assay: DRUGMATRIX: Adrenergic Alpha-2C radioligand binding (ligand: [3H] MK-912); type: cell membranes, Sf9, Membrane; details: sf9
T2 sequence (P18825 whole entry): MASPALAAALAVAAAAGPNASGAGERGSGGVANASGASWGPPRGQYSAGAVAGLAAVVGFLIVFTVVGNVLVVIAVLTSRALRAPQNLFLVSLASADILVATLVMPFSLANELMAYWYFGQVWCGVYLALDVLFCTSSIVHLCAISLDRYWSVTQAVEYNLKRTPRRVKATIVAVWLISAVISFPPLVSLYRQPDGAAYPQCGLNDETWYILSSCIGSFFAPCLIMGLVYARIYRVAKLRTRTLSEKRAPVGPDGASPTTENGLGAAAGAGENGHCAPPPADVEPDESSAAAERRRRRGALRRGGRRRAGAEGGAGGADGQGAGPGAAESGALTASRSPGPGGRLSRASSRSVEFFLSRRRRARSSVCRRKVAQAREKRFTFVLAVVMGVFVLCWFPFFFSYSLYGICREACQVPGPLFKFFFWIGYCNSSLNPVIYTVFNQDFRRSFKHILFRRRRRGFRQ

[11] = target: Substance-P receptor (Homo sapiens, UniProt P25103); type: cell membranes, CHO, Membrane; details: cho; also: in other assays of this panel Not Active means under 50% inhibition at 10 µM
[12] = target: T3, Endothelin-1 receptor (Homo sapiens, UniProt P25101); type: cell membranes, Membrane; details: cho-k1; also: in other assays of this panel Not Active means under 50% inhibition at 10 µM
T3 sequence (P25101 whole entry): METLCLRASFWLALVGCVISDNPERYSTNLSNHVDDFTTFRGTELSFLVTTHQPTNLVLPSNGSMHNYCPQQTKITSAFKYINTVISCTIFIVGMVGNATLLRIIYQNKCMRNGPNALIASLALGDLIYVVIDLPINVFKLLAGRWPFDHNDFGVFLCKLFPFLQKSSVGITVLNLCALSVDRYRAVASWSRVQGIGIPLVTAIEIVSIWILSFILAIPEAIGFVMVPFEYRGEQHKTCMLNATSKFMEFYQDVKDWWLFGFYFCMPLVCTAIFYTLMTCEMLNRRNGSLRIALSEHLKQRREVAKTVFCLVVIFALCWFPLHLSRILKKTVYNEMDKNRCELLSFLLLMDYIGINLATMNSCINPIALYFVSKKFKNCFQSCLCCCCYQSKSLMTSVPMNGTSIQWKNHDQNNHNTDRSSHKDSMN

Chain of Beta-3 adrenergic receptor (P13945 whole entry): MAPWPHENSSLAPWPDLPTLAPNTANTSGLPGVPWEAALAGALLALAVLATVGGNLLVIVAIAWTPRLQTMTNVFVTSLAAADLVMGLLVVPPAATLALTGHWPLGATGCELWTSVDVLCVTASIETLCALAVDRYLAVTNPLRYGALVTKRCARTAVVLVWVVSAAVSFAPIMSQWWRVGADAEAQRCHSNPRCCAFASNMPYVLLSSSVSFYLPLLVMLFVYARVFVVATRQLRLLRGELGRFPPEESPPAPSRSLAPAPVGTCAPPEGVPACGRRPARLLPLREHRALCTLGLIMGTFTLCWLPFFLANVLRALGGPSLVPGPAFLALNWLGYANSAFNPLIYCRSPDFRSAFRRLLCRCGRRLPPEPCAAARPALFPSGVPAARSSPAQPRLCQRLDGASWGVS
Chain of Substance-P receptor (P25103 whole entry): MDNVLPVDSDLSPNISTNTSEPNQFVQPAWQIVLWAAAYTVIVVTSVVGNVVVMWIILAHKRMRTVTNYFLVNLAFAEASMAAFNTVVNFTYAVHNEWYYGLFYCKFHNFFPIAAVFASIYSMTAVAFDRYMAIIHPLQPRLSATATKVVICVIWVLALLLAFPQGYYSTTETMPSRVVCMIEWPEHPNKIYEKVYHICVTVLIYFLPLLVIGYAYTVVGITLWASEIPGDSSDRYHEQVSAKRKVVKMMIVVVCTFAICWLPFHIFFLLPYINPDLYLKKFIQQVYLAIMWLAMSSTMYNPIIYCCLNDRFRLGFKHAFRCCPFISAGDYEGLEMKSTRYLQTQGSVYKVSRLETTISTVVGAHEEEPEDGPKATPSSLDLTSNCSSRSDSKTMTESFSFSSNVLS
Chain of Mu-type opioid receptor (P35372 whole entry): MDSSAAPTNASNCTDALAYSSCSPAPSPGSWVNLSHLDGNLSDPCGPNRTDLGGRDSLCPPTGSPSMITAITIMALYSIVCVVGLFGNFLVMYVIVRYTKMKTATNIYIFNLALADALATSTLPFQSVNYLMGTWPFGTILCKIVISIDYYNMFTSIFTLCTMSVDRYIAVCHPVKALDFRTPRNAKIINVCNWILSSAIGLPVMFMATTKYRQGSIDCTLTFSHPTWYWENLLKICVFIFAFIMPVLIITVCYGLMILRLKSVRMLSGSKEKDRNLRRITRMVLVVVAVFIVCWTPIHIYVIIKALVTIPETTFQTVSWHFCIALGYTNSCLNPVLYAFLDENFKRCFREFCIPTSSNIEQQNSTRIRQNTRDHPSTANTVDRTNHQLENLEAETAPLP
Chain of Voltage-gated inwardly rectifying potassium channel KCNH2 (Q12809 whole entry): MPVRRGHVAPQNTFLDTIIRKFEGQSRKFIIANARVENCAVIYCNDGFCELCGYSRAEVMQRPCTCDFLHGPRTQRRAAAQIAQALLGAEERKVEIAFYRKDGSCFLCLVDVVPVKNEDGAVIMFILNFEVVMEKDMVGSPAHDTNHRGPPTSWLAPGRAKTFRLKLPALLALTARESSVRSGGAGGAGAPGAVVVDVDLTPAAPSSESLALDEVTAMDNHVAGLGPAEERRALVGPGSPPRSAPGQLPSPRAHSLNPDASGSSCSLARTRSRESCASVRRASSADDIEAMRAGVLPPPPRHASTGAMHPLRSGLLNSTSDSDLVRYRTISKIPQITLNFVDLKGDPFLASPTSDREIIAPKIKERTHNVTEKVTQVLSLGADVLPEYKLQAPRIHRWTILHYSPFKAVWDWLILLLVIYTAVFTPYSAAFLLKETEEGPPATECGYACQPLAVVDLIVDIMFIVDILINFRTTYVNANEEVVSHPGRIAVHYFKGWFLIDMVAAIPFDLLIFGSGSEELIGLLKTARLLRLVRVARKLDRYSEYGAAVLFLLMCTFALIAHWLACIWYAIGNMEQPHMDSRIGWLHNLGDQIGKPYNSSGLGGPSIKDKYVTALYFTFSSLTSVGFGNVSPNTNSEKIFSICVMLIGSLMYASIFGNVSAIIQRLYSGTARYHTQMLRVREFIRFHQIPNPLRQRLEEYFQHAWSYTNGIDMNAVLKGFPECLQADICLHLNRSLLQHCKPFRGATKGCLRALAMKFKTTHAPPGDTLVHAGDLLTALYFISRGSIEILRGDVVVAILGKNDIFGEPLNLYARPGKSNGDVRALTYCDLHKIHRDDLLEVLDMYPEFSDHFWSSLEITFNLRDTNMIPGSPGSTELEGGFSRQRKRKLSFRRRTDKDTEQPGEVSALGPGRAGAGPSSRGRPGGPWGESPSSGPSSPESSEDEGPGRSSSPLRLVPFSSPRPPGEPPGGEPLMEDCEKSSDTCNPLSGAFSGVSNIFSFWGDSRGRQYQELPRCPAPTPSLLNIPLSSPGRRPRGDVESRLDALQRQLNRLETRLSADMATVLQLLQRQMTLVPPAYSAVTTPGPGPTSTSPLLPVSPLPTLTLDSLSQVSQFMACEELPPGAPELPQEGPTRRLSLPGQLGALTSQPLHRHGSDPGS
Chain of Prostaglandin G/H synthase 1 (P23219 whole entry): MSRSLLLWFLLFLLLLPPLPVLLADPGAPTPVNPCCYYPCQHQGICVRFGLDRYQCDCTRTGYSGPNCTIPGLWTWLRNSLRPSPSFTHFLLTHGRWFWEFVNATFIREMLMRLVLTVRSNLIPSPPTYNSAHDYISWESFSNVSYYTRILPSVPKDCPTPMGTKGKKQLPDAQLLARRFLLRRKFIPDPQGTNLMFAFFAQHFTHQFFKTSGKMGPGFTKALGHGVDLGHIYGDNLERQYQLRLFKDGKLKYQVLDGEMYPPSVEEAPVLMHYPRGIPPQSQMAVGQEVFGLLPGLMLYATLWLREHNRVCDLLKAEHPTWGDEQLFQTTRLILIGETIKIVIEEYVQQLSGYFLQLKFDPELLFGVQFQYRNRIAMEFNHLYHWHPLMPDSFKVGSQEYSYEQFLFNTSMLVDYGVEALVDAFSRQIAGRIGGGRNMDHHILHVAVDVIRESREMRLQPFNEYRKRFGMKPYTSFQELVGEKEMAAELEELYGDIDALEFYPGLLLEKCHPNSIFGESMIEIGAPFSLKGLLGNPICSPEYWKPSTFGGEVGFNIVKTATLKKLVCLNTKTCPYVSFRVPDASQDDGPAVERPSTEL
Chain of Cytochrome P450 2C19 (P33261 whole entry): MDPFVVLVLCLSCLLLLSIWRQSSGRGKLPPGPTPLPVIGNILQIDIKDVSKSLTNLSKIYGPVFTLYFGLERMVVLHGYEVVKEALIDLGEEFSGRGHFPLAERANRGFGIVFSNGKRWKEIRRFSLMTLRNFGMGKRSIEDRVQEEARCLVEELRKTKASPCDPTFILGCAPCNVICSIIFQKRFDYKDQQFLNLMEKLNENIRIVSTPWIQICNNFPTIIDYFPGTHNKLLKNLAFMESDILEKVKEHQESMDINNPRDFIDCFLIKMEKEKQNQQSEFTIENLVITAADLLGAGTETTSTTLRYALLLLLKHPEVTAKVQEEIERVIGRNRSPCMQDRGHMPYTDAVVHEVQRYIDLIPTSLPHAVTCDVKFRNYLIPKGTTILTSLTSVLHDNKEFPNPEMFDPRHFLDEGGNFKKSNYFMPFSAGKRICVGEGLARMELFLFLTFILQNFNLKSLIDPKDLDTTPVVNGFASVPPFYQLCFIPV

| Structure (SMILES) | IC50 [1] | IC50 [2] | Ki [2] | IC50 [3] | IC50 [4] | IC50 [5] | Ki [5] | IC50 [6] | IC50 [7] | Ki [7] | IC50 ([8]; read-out: IC50) [nM] | Ki ([8]; read-out: Ki) [nM] | IC50 [9] | Ki [9] | IC50 [10] | IC50 [11] | IC50 [12] | IC50 [8] | Ki [8] |
| --- | --- | --- | --- | --- | --- | --- | --- | --- | --- | --- | --- | --- | --- | --- | --- | --- | --- | --- | --- |
| Cc1[nH]cnc1CN1CCc2c(c3ccccc3n2C)C1=O [ALOSETRON] | Not Active | Not Active | Not Active | Not Active | Not Active | Not Active | Not Active | Not Active | Not Active | Not Active | 1.16 | 0.262 | Not Active | Not Active | Not Active | Not Active | Not Active |  |  |
| O=c1cc(-c2ccccc2)oc2c1ccc1ccccc12 [ALPHA-NAPHTHOFLAVONE] | Not Active | Not Active | Not Active | Not Active | Not Active | Not Active | Not Active | Not Active | Not Active | Not Active |  |  | Not Active | Not Active | Not Active | Not Active | Not Active | Not Active | Not Active |
| NCC[C@H](O)C(=O)N[C@@H]1C[C@H](N)[C@@H](O[C@H]2O[C@H](CN)[C@@H](O)[C@H](O)[C@H]2O)[C@H](O)[C@H]1O[C@H]1O[C@H](CO)[C@@H](O)[C@H](N)[C@H]1O [AMIKACIN] | Not Active | Not Active | Not Active | Not Active | Not Active | Not Active | Not Active | Not Active | Not Active | Not Active |  |  | Not Active | Not Active | Not Active | Not Active | Not Active | Not Active | Not Active |
| CCOC(=O)OC(C)OC1=C(C(=O)Nc2ccccn2)N(C)S(=O)(=O)c2ccccc21 (stereo unspecified) [AMPIROXICAM] | Not Active | Not Active | Not Active | Not Active | Not Active | Not Active | Not Active | Not Active | Not Active | Not Active |  |  | Not Active | Not Active | Not Active | Not Active | Not Active | Not Active | Not Active |
| N=C(N)NCCCCNC(=N)N.O=S(=O)(O)O [ARCAINE SULFATE] | Not Active | Not Active | Not Active | Not Active | Not Active | Not Active | Not Active | Not Active | Not Active | Not Active |  |  | Not Active | Not Active | Not Active | Not Active | Not Active | Not Active | Not Active |
| CC1(C)S[C@@H]2[C@H](NC(=O)[C@H](NC(=O)N3CCNC3=O)c3ccccc3)C(=O)N2[C@H]1C(=O)O [AZLOCILLIN] | Not Active | Not Active | Not Active | Not Active | Not Active | Not Active | Not Active | Not Active | Not Active | Not Active |  |  | Not Active | Not Active | Not Active | Not Active | Not Active | Not Active | Not Active |
| CC[C@H](C)[C@H](N)C1=N[C@H](C(=O)N[C@@H](CC(C)C)C(=O)N[C@H](CCC(=O)O)C(=O)N[C@H](C(=O)N[C@H]2CCCCNC(=O)[C@H](CC(N)=O)NC(=O)[C@@H](CC(=O)O)NC(=O)[C@H](Cc3cnc[nH]3)NC(=O)[C@@H](Cc3ccccc3)NC(=O)[C@H]([C@@H](C)CC)NC(=O)[C@@H](CCCN)NC2=O)[C@@H](C)CC)CS1 [BACITRACIN] ({Ileψ(thiazoline)Cys}-L[dE]IK[dOrn]I[dF]H[dD]N; lactam 4-C) | Not Active | Not Active | Not Active | Not Active | Not Active | Not Active | Not Active | Not Active | Not Active | Not Active |  |  | Not Active | Not Active | Not Active | Not Active | Not Active | Not Active | Not Active |
| CCOC(=O)c1ccc(N)cc1 [BENZOCAINE] | Not Active | Not Active | Not Active | Not Active | Not Active | Not Active | Not Active | Not Active | Not Active | Not Active |  |  | Not Active | Not Active | Not Active | Not Active | Not Active | Not Active | Not Active |
